The text below walks through data of patent US20210275480A1, “COMPOSITIONS AND METHODS FOR THE REDUCTION OR TREATMENT OF FIBROSIS” (AXCELLA HEALTH INC., priority 2018, published 2021).

Molecules are shown by their SMILES.

The data set has as its system FATZO mice (NASH). As to the kind of experiment: FATZO mouse western diet + fructose NASH model (Example 6): body and liver weight, liver histology, NAS, fibrosis, Sirius Red. It is filed as in vivo. The conditions noted are these: WDF-fed FATZO mice. An excerpt:
In one example, the effects of […] and related amino acid compositions in the obesity, metabolism-driven non-alcoholic steatohepatitis (NASH) in FATZO mouse model was examined.
NASH was induced in 60 male FATZO mice by a western diet (Research Diet #D12079B; fat 40% kcal, protein 17% kcal, carbohydrate 43% kcal) supplemented with 5% fructose in the drinking water (WDF) during a 16 week induction phase. Diets and water were available ad libitum. Littermate control male FATZO mice fed with a control diet (n=6, Purina #5008; fat 17% kcal, protein 27% kcal, carbohydrate 56% kcal) and sterile water were set up for control purpose. Mice were housed in plastic cages with microisolator. Sterilized bedding was replaced once a week. Mice were housed three per cage and maintained on a twelve hour light cycle throughout study duration. Room temperature was monitored daily and maintained at 22-25° C. Body weight was recorded every week during the induction phase.
Following 16 weeks diet induction, 6 mice remained on control diet (group 1, Control) while 60 induced mice were randomized on body weight and plasma glucose (fed) for assignment to the following treatments. FATZO mice were administered with test articles starting at 16 weeks post western diet NASH induction for 4 weeks. Test articles were administered by oral gavage. Animals were euthanized at 20 weeks post western diet NASH induction, and tissues were harvested for analysis.
[…], […]+G, LRQNAC, and OCA (Advanced ChemBlocks, Inc.), incipient, and water for irrigation were provided by Axcella Health, Inc. 0.5% Methylcellulose was provided by CrownBio, Inc. Dosing solutions were prepared according to Appendix 1. […] Obeticholic acid (OCA) was suspended in 0.5% methylcellulose in water for irrigation. All test articles were stored refrigerated. TA compounds were provided in frozen powder form by the sponsor. Dosing was continued for 4 weeks.
Leucine dosages of […]+G and LRQNAC were matched to that of […].
[…], […]+G, LRQNAC, OCA and Vehicle were administered by oral gavage at a volume of 10 mL/kg throughout the study. Dosages were calculated by daily body weight. […], […]+G, LRQNAC, and Vehicle were administered twice per day (BID), while OCA was administered once a day (QD) in the morning. Mice receiving OCA once per day (QD), and one vehicle QD. Doses were administered by oral gavage at 0700 and 1800 by oral gavage for 4 weeks.
The viability, clinical signs and behavior were monitored daily. Body weight was recorded daily during the dosing period. Blood samples were collected weekly in the AM (0700) via tail clip for glucose measurement (StatStrip glucometer).
Animals were anesthetized with CO2 inhalation and exsanguinated via cardiac puncture for euthanasia. Terminal blood samples (K2EDTA) were obtained by cardiac puncture in anesthetized animals at termination. Samples were provided frozen to Axcella Health. Organ weights (total liver, gonadal fat pads) were recorded. Pancreas, and small intestine and gonadal fat pads were fixed in 10% Buffered Formalin and prepared as directed in protocol. A section of small intestine, gonadal fat pad and liver were also snap frozen in liquid nitrogen and shipped to the sponsor.
The liver tissues were fixed in Bouin's solution at 4° C. for 24 hours followed by baths of standard concentrations of alcohol then xylene to prepare the tissues for paraffin embedding. After being embedded in paraffin and cooled, five-micron sections were cut and stained for routine H&E and Picric Sirius Red. A section of both right and left lobes of the livers were frozen in OCT for analysis of lipid content with Oil-Red-) staining. The Aperio whole slide digital imaging system (Scan Scope CS, Vista, Calif.) was used for imaging. All slides were imaged at 20×. The scan time ranged from 1.5 minutes to a maximum time of 2.25 minutes. […]

Where [1] appears, read: OCA oral gavage QD, 4 weeks, mean ± SEM.

Regarding `CC[C@H]1[C@@H](O)[C@@H]2[C@H](CC[C@]3(C)[C@@H]([C@H](C)CCC(=O)O)CC[C@@H]23)[C@@]2(C)CC[C@@H](O)C[C@@H]12` [OCA, 6α-ethyl-chenodeoxycholic acid], under setting [1], the “Fibrosis (liver fibrosis score)” value is 0.67 ± 0.167, the “Liver Pathology: Inflammation” value stood at 1.0 ± 0.0, the “Liver Pathology: NAS” value is given as 3.72 ± 0.147 and the “Sirius Red (collagen staining)” value turned out to be 1.59 ± 0.36. In addition, under “OCA oral gavage QD, 4 weeks, score 0-2, mean ± SEM”, the “Liver Pathology: Ballooning” value was 0.94 ± 0.056. Where the note is “OCA oral gavage QD, 4 weeks, score 0-3, mean ± SEM”, the “Liver Pathology: Steatosis” value amounted to 1.78 ± 0.147. Moreover, the “Body weight change compared to baseline” value (4 weeks oral, LIVRQNAC 3000 mg/kg, LIVRQNAC+G 3885 mg/kg, LRQNAC 2469 mg/kg BID, OCA 30 mg/kg/day QD) is −3.9±1.5%. Where the note is “4 weeks, LIVRQNAC 3000 mg/kg, LIVRQNAC+G 3885 mg/kg, LRQNAC 2469 mg/kg, OCA 30 mg/kg/day”, the “Liver weight (% body weight)” value worked out at 6.81±0.2 % body weight.
